Test results taken from patent publication US7741521B2, “Inhibition of bid-induced cell-death using small organic molecules” (The Burnham Institute, priority 2004, dated 2010).

Target: T1, tBID (Mus musculus, UniProt P70444)
T1 construct: tBID was produced by cleavage of purified BID with caspase-8, as known in the art; made in house; host or cells: E. coli BL21 (BID), then cleaved in vitro with caspase-8
T1 sequence (P70444 60-195 limits assumed): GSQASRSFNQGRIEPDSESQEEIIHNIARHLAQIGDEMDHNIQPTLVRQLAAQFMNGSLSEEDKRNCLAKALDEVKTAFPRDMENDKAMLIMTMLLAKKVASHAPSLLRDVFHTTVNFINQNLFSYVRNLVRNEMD
T1 sequence (P70444 1-59 partner limits assumed): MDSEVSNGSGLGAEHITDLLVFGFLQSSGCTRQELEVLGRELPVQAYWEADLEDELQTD
Test: tBID-induced Smac release from isolated mitochondria
Format: biochemical
Details: for tBID-induced Smac release from mitochondria isolated from HeLa cells: 50 ng tBid
Procedure: 100 ng of tBID (cleaved by caspase 8) was pre-incubated with various concentrations of compounds for 15 minutes at 30° C. in HM buffer (10 mM Hepes, pH 7.4, 250 mM Mannitol, 10 mM KCl, 1.5 mM MgCl, 1 mM DTT, 1 mM EGTA), then 50 μg of isolated mitochondria from HCT116 cells were added to a final volume of 50 μl in HM buffer. After 1 hour incubation at 30° C., the samples were centrifuged at 10,000×g for 5 minutes at 4° C. and the supernatant was analyzed by SDS-PAGE/immunoblotting using anti-SMAC antibody.
Compounds II-IX were tested in vitro for their ability to inhibit BID-mediated release of Smac using mitochondria isolated from HeLa cells (FIG. 6A). The first lane represents mitochondria incubated without tBID. All others received 100 ng tBID without or with compounds. Each compound was tested at a concentration of 50 μM. […] To preliminarily investigate the mechanism by which compound II reduces Smac-release from isolated mitochondria, the tBID protein was treated with different concentrations of BI-6C9, after which it was incubated with mitochondria, followed by analysis of the bound and unbound fractions by immunoblotting using BID antibody. The concentration of mitochondria-bound tBID diminished in response to increasing concentrations of compound II.
About 50 ng of tBID cleaved by […] was pre-incubated for about 15 minutes at about 30° C. with various concentrations of compounds I, II, and X. Then, about 50 μg of isolated mitochondria from Hela cells were added to the reaction system. After about 1 hour of incubation at about 30° C., the samples were centrifuged at 10,000×g for about 5 minutes at about 4° C., and the supernatant was analyzed by SDS-PAGE/immunoblotting using Smac antibody. The results of the analysis are presented on FIG. 8. As shown by FIG. 9, compound I is a strong binder for BID.
Some results of comparative studies of compounds I and II are shown on FIG. 10. […] The first lane represents mitochondria incubated without tBID. All others received 50 ng tBid without or with bi-dentate compound.

## Nc1ccc(Sc2ccc(NC(=O)CNC(=O)c3ccc(O)cc3O)cc2)cc1 [Compound I, N-((4-(4-aminophenylthio)phenylcarbamoyl)methyl)-2,4-dihydroxybenzamide]
  tBID-induced Smac release from mitochondria isolated from HeLa cells: block

## COc1ccc(S(=O)(=O)NCCCC(=O)Nc2ccc(Sc3ccc(N)cc3)cc2)cc1 [Compound II, N-[4-(4-amino-phenylsulfanyl)-phenyl]-4-(4-methoxy-benzenesulfonylamino)-butyramide]
  tBID-induced Smac release from mitochondria isolated from HeLa cells: block
50 μM compound, isolated mitochondria
  inhibition at 50 µM: 100%
50 μM, 100 ng tBID, mitochondria isolated from HeLa cells
  reduction of tBID-induced Smac release: significantly reduce
At concentrations as low as 20 μM
  decrease of Smac release, dose experiment: dramatically decreased
